# In publication PMC3871589, “Evaluation of STAT3 Signaling in ALDH+ and ALDH+/CD44+/CD24− Subpopulations of Breast Cancer Cells” (PLoS ONE, 2013):
# Key:
# Format in all cases: cell-based, human
# [1] = tested on: ALDH+ subpopulation in MDA-MB-231, SUM159, and SK-BR3 cancer cells; assay: ALDEFLUOR assay, percentage of ALDH+ subpopulation; conditions: un-separated MDA-MB-231, SUM159, SK-BR3; LLL12 5 µmol/L or Stattic 10 µM, 24 hours
# Experimental: (§1) The ALDEFLUOR kit (StemCell Technologies) was used to isolate the population with high ALDH enzymatic activity as previously described. Briefly, cells were trypsinized to single cells using 0.05% trypsin and subsequently suspended in ALDEFLUOR assay buffer containing ALDH substrate (BAAA, 1 µmol/l per 1×10^6 cells) and then incubated for 40 minutes at 37°C. For each sample, an aliquot of cells was stained under identical conditions with 15 mmol/L diethylaminobenzaldehyde (DEAB), a specific ALDH inhibitor, as an ALDH^− control. Anti-human PE-CD24 and PE-Cy5-CD44 antibody (BioLegend) were used for CD44/CD24 identification and to separate ALDH^+/CD44^+/CD24^− and ALDH^−/CD44^+/CD24^+ cells when combined with ALDH staining. Analysis was performed using a FACStarPLUS (Becton Dickinion) flow cytometer. To assess the effect of STAT3 inhibitors on the subpopulation of ALDH^+ cells, un-separated breast cancer cells were treated with 5 µmol/L of LLL12 or 10 µmol/L Stattic for 24 hours prior to performing the ALDEFLUOR assay.
# ALDH− cells = assay: MTT cell viability assay, ALDH− subpopulation; conditions: Figure S4
# Experimental: (§2) The breast cancer cells were seeded in 96-well plates (3,000 cells/well) in triplicates in a serum-free mammary epithelial basal medium. The following day, cancer cells were treated with 1 to 10 µmol/L of LLL12 or Stattic for 72 hours, STAT3 ShRNA or control GFP shRNA lentivirus (CTL ShRNA) for 48 hours. MTT (Thiazolyl Blue Tetrazolium Bromide, Sigma-Aldrich) assay was used to determine the cell viability.
# [2] = tested on: ALDH+ subpopulations of SK-BR-3, MDA-MB-231, and SUM159; assay: Tumorsphere formation, ALDH+ subpopulations; conditions: 2.5–10 µmol/L, 10 to 15 days
# Experimental: ALDH^+ and ALDH^+/CD44^+/CD24^− cells were plated as single cells in ultra-low attachment six-well plates at a density of 250, 500, 1000 or 50,000 viable cells/well as previously described. On the second day after seeding, the ALDH^+ cancer cells were treated with 2.5–10 µmol/L of LLL12 or Stattic. For tumorsphere forming capacity assay, ALDH^+ or ALDH^− cells were plated as single cells in ultra-low attachment six-well plates at a density of 250, 500 or 1000 viable cells/well. Tumorsphere growth was observed under a microscope 10 to 15 days later.
# [3] = tested on: ALDH+ subpopulation from MDA-MB-231, SUM159, and SK-BR3 cells; assay: MTT cell viability assay, ALDH+ subpopulation; conditions: 1 to 10 µmol/L 72 hours, ShRNA 48 hours
# Experimental: as §2
# ERK1/2 phosphorylation = ERK1/2 phosphorylation in ALDH+ cells; conditions: ALDH+ breast cancer stem-like cells; 10 µmol/L, 24 hours
# Experimental: After sorting by flow cytometry, ALDH^+ and ALDH^+/CD44^+/CD24^− stem-like cells were cultured in serum-free stem cell medium in ultra-low attachment six-well plates (Corning) to maintain cancer stem cell characteristics. ALDH^−, ALDH^−/CD44^+/CD24^+cells and un-separated cells were cultured in regular medium and replaced with identical stem cell medium for three days before being harvested. To assess the effects of STAT3 inhibitors, ALDH^+ and ALDH^+/CD44^+/CD24^− subpopulations of breast cancer cells were treated with LLL12 (5 µmol/L) of or static (10 µmol/L) for 24 hours. STAT3, or control GFP shRNA lentivirus (CTL ShRNA) was introduced into ALDH^+ breast cancer stem-like cells for 48 hours, then followed by selection with puromycin (0.2 µg/ml) for 72 hours. Antibodies (Cell Signaling Tech.) against phospho-specific STAT3 (Tyrosine 705) (P-STAT3, Y705), ERK1/2 (Threonine 202/Tyrosine 204), cleaved Poly (ADP-ribose) polymerase (PARP), ALDH1, cleaved caspase-3, and GAPDH were used for western blots.
# [4] = tested on: STAT3 phosphorylation (Y705); assay: Western blot of STAT3 phosphorylation in ALDH+ cells; conditions: LLL12 5 µmol/L or Stattic 10 µmol/L 24 hours, ShRNA 48 hours then puromycin
# Experimental: as §1
# After sorting by flow cytometry, ALDH^+ and ALDH^+/CD44^+/CD24^− stem-like cells were cultured in serum-free stem cell medium in ultra-low attachment six-well plates (Corning) to maintain cancer stem cell characteristics. […]
compound,measurement,setting,value
"O=[N+]([O-])c1ccc2c(c1)S(=O)(=O)C=C2 [Stattic, reference compound]",ALDH+ subpopulation (percentage),[1],decreased
same,effects against the ALDH− cells (cell viability),ALDH− cells,some inhibitory effects
same,tumorsphere formation,[2],suppress
same,cell viability of the ALDH+ subpopulation,[3],inhibit
same,ERK1/2 phosphorylation,ERK1/2 phosphorylation,not
same,STAT3 phosphorylation in ALDH+ cells,[4],reduced
